Experimental data from patent US20250366467A1, “METHODS FOR FLUID RESUSCITATION OF AN ORGAN DONOR” (VIRGINIA COMMONWEALTH UNIVERSITY, priority 2022, published 2025).

System: brain dead adult beagle dogs
Conditions: dog, in vivo
Experimental: Care and Use Committee. Adult beagle dogs (8-10 kg) of either sex (n=11) were initially anesthetized with propofol (10 mg/kg, intravenous or IV). After intubation, anesthesia was maintained with isoflurane at 1-2% on mechanical ventilation with FiO2 at 30%, ventilation rate of 12, which was adjusted as necessary to achieve a PaCO2 goal of 38-42 mmHg. A circulating water-warming pad was used to maintain normothermia throughout the experiment. The femoral artery was cannulated for arterial blood sampling and for measurement of arterial blood pressure and heart rate. The external jugular vein was also accessed and cannulated for administration of fluids and necessary medications.
Explosive brain death was induced in anesthetized adult Beagle dogs by inflating a balloon catheter (16 Fr. Foley) that was placed under the skull from a trephination burr hole. The balloon was inflated from 0-8 ml volume over about 5 minutes. which ultimately causes the brain stem to herniate through the foramen at the base of the skull. This causes rapid brain death that is characterized by the occurrence of a Cushing reflex, a negative apnea reflex, and fixed and dilated pupils. This methodology has previously been described by Mangino, et al.
The animals were assigned to either the control group (n=5) or the PEG-20k group (n=6) within the first hour. Both groups were treated in a standard fashion. […]

polyethylene glycol-20k [PEG-20k]
Hb level trend: trended lower
